The text below walks through data of US20130252831A1, “METHOD OF DIAGNOSING EARLY STAGE NON-SMALL CELL LUNG CANCER” (H. Lee Moffitt Cancer Center and Research Institute, Inc., priority 2010, published 2013).

One test relates to A489 cell line. In words: MR score in cisplatin treated versus control cells, Almeida et al. dataset GSE6410. The test is classed as cell-based. The conditions noted are these: p=0.08. From the text:
The inventors have identified 10 published datasets describing drug sensitivity in cell lines. Three of them have been analyzed to show the potential of the MR signature for its association with drug sensitivity. […] A high MR score tends to be associated with low GI50 (sensitivity) in both drugs. In addition, in the Almeida et al.'s study (GSE6410), the MR score was lower in the cisplatin treated group than in the control group in A489 cell line (FIG. 20c).
Thousands and thousands of gene expression array data have been deposited at various public repositories, such as NCBI's Gene Expression Omnibus and EBI's ArrayExpress with more than 600,000 array data for each site (updated in October 2011; 100,000 more since January 2011). The broad and unrestricted microarray data have made in-silico validation of hypotheses accessible and feasible. For this invention, more than 1,000 microarray datasets have potential for performing in-silico validation (e.g., data related to the keyword “non-small cell lung cancer cell line” at GEO). First, appropriate datasets are identified for validation by reading the […] (at least abstract and experimental design). At this moment, more than 10 potential useful datasets have been identified. […] Molecular cancer therapeutics, 2008, 7(7); p. […]

A further test deals with EGFR-mutant NSCLC. As to conditions: randomized phase III trial (Zhou et al.); cited from earlier work.

For the molecule `N.N.[Cl][Pt][Cl]` [Cisplatin], the “MR score in treated group versus control group” value in the test on A489 cell line was “lower”.

Turning to `C#Cc1cccc(Nc2ncnc3cc(OCCOC)c(OCCOC)cc23)c1` [erlotinib], in the test with EGFR-mutant NSCLC, the “efficacy compared with platinum-based chemotherapy” value is reported as “superior to platinum-based chemotherapy”.
